In patent publication US10125134B2 (Mirati Therapeutics, Inc., priority 2016, dated 2018) one finds IC50 and POC data, which are given here for 18 compounds.

In test [1] the test system is NCI-H358 cells (express KRas G12C), Phospho-ERK. Briefly: Cellular inhibition of KRas G12C: Phospho-ERK in NCI-H358 cells. The conditions noted are these: Homo sapiens, pERK(Thr202/Tyr204) normalized with GAPDH, NCI-H358 cells, 3 hours, read-out: IC50. Type of test: cell-based. On the procedure:
The cellular inhibition of KRAs G12C by exemplary compounds of the present invention was determined by measuring the amount of a downstream marker of KRas activity, phosphorylated ERK (“Phospho-ERK”).
Cells were plated in poly-D-Lysine coated 96-well plates at a concentration of 50,000 cells/well and allowed to attach for 8-12 hours. Diluted compounds were then added at a final concentration of 0.5% DMSO. After 3 hours, the medium was removed, 150 μL of 4% formaldehyde was added and the plates were incubated for 20 minutes. The plates were washed with PBS, and permeabilized using 150 μL of ice cold 100% methanol for 10 minutes. Non-specific antibody binding to the plates was blocked using 100 μL Licor Blocking Buffer (Li-Cor Biotechnology, Lincoln Nebr.) for 1 hour at room temperature. Positive control samples and samples lacking cells were parallel processed with test samples as standards.
The amount Phospho-ERK was determined using an antibody specific for the phosphorylated form of ERK and compared to the amount of GAPDH. […] The plates were incubated for 2 hours at room temperature. The plates were washed with PBS+0.05% Tween 20.
Secondary antibodies used to visualize primary antibodies were added as follows: Anti-rabbit-680 diluted 1:1000 and Anti-mouse-800 diluted 1:1000 in Licor Block+0.05% Tween 20 and incubated for 1 hour at room temperature. The plates were washed with PBS+0.05% Tween 20. A 100 μL aliquot of PBS was added to each well and the plates were read on a LICOR AERIUS plate reader.
The pERK(Thr202/Tyr204) signal was normalized with the GAPDH signal and percent of DMSO control values were calculated. IC50 values were generated using a 4 parameter fit of the dose response curve. Key: “A”≥0.0001−≤1 μM; and “B”>1 μM.

For the next test, the target named is KRas G12C (Homo sapiens, UniProt P01116, C118S/C51S/C80L/G12C). Briefly: KRas G12C Modification Assay (LCMS detection of covalent adduct). It is filed as binding. The conditions noted are these: normalized percent of control; tested at 5 μM concentration for 3 hours. On the procedure: A 10 μL aliquot of each protein solution was then transferred to a 384 well microtiter plate. Initial compound stocks were generated at fifty times their desired final assay concentration in DMSO.
Exemplary compounds of Formula (I) were diluted 25-fold into K-Ras Assay Buffer to a final of two times their final concentration. A 10 μL aliquot of each diluted compound solution was then added to each of the protein solutions in the microtiter plate to initiate reaction. […] At each time point, the reactions were quenched with 20 μL of a 25 mM acetic acid solution. […] Once all reactions were quenched, the plates were heat sealed and the samples were injected into a LC/MS system for data acquisition.
Samples were injected in their liquid phase onto a C-3 reverse phase column to remove assay buffer and prepare the samples for mass spectrometer. The proteins were eluted from the column using an acetonitrile gradient and fed directly into the mass analyzer. Initial raw data analysis took place in Agilent MassHunter software immediately post data acquisition.
Raw data analysis of the intact protein was exclusively a deconvolution of the multiple charge states of each protein in solution using a maximum entropy deconvolution provided in Mass Hunter. To minimize complexity, only the data over limited mass ranges were considered for analysis, with a minimum of one Dalton mass step intervals. The heights of all masses identified during raw data analysis were exported to be further analyzed in Spotfire® data analysis software.
Final data analysis was a multistep process in the Spotfire® data analysis software package. Briefly, each protein mass was calculated as a percent of the total signal of that sample, that percentage was then normalized to the percentage of signal of the protein in the absence of reactive compounds. Those normalized signals were reported as normalized percent of control (POC). […] Key: “A”≤25% POC; “B”>25% POC−≤50% POC; “C”>50% POC and ND=not determined.

Like-named read-outs stand apart in the source and are kept apart here.

For `C=CC(=O)N1CCN(c2ncnc3c2CCN(c2c(O)cccc2F)C3)CC1` [Example 4, 1-(4-(7-(2-fluoro-6-hydroxyphenyl)-5,6,7,8-tetrahydropyrido[3,4-d]pyrimidin-4-yl)piperazin-1-yl)prop-2-en-1-one], in test [1] (NCI-H358, 3 h), the IC50 (in general, the concentration at which inhibition is half-maximal) is over 1000 nM. Moreover, the POC result at KRas G12C is “A (“A”≤25% POC)”.
For `C=CC(=O)N1CCN(c2ncnc3c2CCN(c2cc(O)ccc2F)C3)CC1` [Example 5, 1-(4-(7-(2-fluoro-5-hydroxyphenyl)-5,6,7,8-tetrahydropyrido[3,4-d]pyrimidin-4-yl)piperazin-1-yl)prop-2-en-1-one] the same measures were over 1000 nM and “A (“A”≤25% POC)”.
For `C=CC(=O)N1CCN(c2ncnc3c2CC(C)N(c2cc(O)cc4ccccc24)C3)CC1` (stereo not drawn) [Example 6, 1-(4-(7-(3-hydroxynaphthalen-1-yl)-6-methyl-5,6,7,8-tetrahydropyrido[3,4-d]pyrimidin-4-yl)piperazin-1-yl)prop-2-en-1-one], the IC50 in test [1] is over 1000 nM. Further, the POC entry on KRas G12C is “B (“B”>25% POC−≤50% POC)”.
Take `C=CC(=O)N1CCN(c2ncnc3c2CCN(c2c(C)ccc4[nH]ncc24)C3)CC1` [Example 7, 1-(4-(7-(5-methyl-1H-indazol-4-yl)-5,6,7,8-tetrahydropyrido[3,4-d]pyrimidin-4-yl)piperazin-1-yl)prop-2-en-1-one]: in test [1] (NCI-H358, 3 h), the IC50 was over 1000 nM. For the same compound, the POC result on KRas G12C is given as “A (“A”≤25% POC)”.
Turning to `C=CC(=O)N1CCN(c2nc(O[C@@H](C)CN(C)C)nc3c2CCN(c2cc(O)cc4ccccc24)C3)CC1` [Example 8, (S)-1-(4-(2-((1-(dimethylamino)propan-2-yl)oxy)-7-(3-hydroxynaphthalen-1-yl)-5,6,7,8-tetrahydropyrido[3,4-d]pyrimidin-4-yl)piperazin-1-yl)prop-2-en-1-one], in test [1] (NCI-H358, 3 h), the IC50 is over 1000 nM. Also, at KRas G12C, the POC result is “B (“B”>25% POC−≤50% POC)”.
Turning to `C=CC(=O)N1CCN(c2nc(OCCN(C)C)nc3c2CCN(c2cc(O)cc4ccccc24)C3)CC1` [Example 9, 1-(4-(2-(2-(dimethylamino)ethoxy)-7-(3-hydroxynaphthalen-1-yl)-5,6,7,8-tetrahydropyrido[3,4-d]pyrimidin-4-yl)piperazin-1-yl)prop-2-en-1-one], the IC50 in test [1] (NCI-H358, 3 h) is over 1000 nM. Further, the POC entry at KRas G12C is “C (“C”>50% POC)”.
For `C=CC(=O)N1CCN(c2nc(OCCCN(C)C)nc3c2CCN(c2cc(O)cc4ccccc24)C3)CC1` [Example 10, 1-(4-(2-(3-(dimethylamino)propoxy)-7-(3-hydroxynaphthalen-1-yl)-5,6,7,8-tetrahydropyrido[3,4-d]pyrimidin-4-yl)piperazin-1-yl)prop-2-en-1-one] the same measures were over 1000 nM and “C (“C”>50% POC)”.
Taken in the same sequence, the figures for `C=CC(=O)N1CCN(c2nc(OC(C)CN(C)C)nc3c2CCN(c2cc(O)cc4ccccc24)C3)CC1` (stereo not drawn) [Example 11, 1-(4-(2-((1-(dimethylamino)propan-2-yl)oxy)-7-(3-hydroxynaphthalen-1-yl)-5,6,7,8-tetrahydropyrido[3,4-d]pyrimidin-4-yl)piperazin-1-yl)prop-2-en-1-one] were 0.1 to 1000 nM and “C (“C”>50% POC)”.
In the case of `C=CC(=O)N1CCN(c2nc(N3CCN(C)CC3)nc3c2CCN(c2cc(O)cc4ccccc24)C3)CC1` [Example 12, 1-(4-(7-(3-hydroxynaphthalen-1-yl)-2-(4-methylpiperazin-1-yl)-5,6,7,8-tetrahydropyrido[3,4-d]pyrimidin-4-yl)piperazin-1-yl)prop-2-en-1-one], the IC50 in test [1] (NCI-H358, 3 h) was over 1000 nM. Further, the POC entry on KRas G12C was “C (“C”>50% POC)”.
Taken in the same sequence, the figures for `C=CC(=O)N1CCN(c2nc(N3CCC(N(C)C)C3)nc3c2CCN(c2cc(O)cc4ccccc24)C3)CC1` (stereo not drawn) [Example 13, 1-(4-(2-(3-(dimethylamino)pyrrolidin-1-yl)-7-(3-hydroxynaphthalen-1-yl)-5,6,7,8-tetrahydropyrido[3,4-d]pyrimidin-4-yl)piperazin-1-yl)prop-2-en-1-one] were over 1000 nM and “C (“C”>50% POC)”.
For `C=CC(=O)N1CCN(c2nc(OCCN(C)C)nc3c2CCN(c2cc(O)cc4ccccc24)C3)C[C@@H]1C` [Example 14], in test [1] (NCI-H358, 3 h), the IC50 was over 1000 nM. The POC result at KRas G12C was “C (“C”>50% POC)”.
For `C=CC(=O)N1CCN(c2nc(OCCN(C)C)nc3c2CCN(c2cc(O)cc4ccccc24)C3)C[C@H]1C` [Example 15, (R)-1-(4-(2-(2-(dimethylamino)ethoxy)-7-(3-hydroxynaphthalen-1-yl)-5,6,7,8-tetrahydropyrido[3,4-d]pyrimidin-4-yl)-2-methylpiperazin-1-yl)prop-2-en-1-one] the same measures were over 1000 nM and “C (“C”>50% POC)”.
Taken in the same sequence, the figures for `C=CC(=O)N1CC2(C1)CN(c1nc(OCCN(C)C)nc3c1CCN(c1cc(O)cc4ccccc14)C3)C2` [Example 16, 1-(6-(2-(2-(dimethylamino)ethoxy)-7-(3-hydroxynaphthalen-1-yl)-5,6,7,8-tetrahydropyrido[3,4-d]pyrimidin-4-yl)-2,6-diazaspiro[3.3]heptan-2-yl)prop-2-en-1-one] were over 1000 nM and “C (“C”>50% POC)”.
Taken in the same sequence, the figures for `C=CC(=O)N1CCN(c2nc(N3CCC(N(C)C)CC3)nc3c2CCN(c2cc(O)cc4ccccc24)C3)CC1` [Example 17, 1-(4-(2-(4-(dimethylamino)piperidin-1-yl)-7-(3-hydroxynaphthalen-1-yl)-5,6,7,8-tetrahydropyrido[3,4-d]pyrimidin-4-yl)piperazin-1-yl)prop-2-en-1-one] were over 1000 nM and “B (“B”>25% POC−≤50% POC)”.
Turning to `C=CC(=O)N1CC2(C1)CN(c1nc(OC(C)CN(C)C)nc3c1CCN(c1cc(O)cc4ccccc14)C3)C2` (stereo not drawn) [Example 18, 1-(6-(2-((1-(dimethylamino)propan-2-yl)oxy)-7-(3-hydroxynaphthalen-1-yl)-5,6,7,8-tetrahydropyrido[3,4-d]pyrimidin-4-yl)-2,6-diazaspiro[3.3]heptan-2-yl)prop-2-en-1-one], the IC50 in test [1] was over 1000 nM. Also, on KRas G12C, the POC entry is listed as “C (“C”>50% POC)”.
In the case of `C=CC(=O)N1CCN(c2nc(O[C@H](C)CN(C)C)nc3c2CCN(c2cc(O)cc4ccccc24)C3)CC1` [Example 19, (R)-1-(4-(2-((1-(dimethylamino)propan-2-yl)oxy)-7-(3-hydroxynaphthalen-1-yl)-5,6,7,8-tetrahydropyrido[3,4-d]pyrimidin-4-yl)piperazin-1-yl)prop-2-en-1-one], in test [1] (NCI-H358, 3 h), the IC50 was in the range of 0.1 to 1000 nM. For the same compound, on KRas G12C, the POC entry is on record as “C (“C”>50% POC)”.
For `C=CC(=O)N1CC2(C1)CN(c1nc(OCCCN(C)C)nc3c1CCN(c1cc(O)cc4ccccc14)C3)C2` [Example 20, 1-(6-(2-(3-(dimethylamino)propoxy)-7-(3-hydroxynaphthalen-1-yl)-5,6,7,8-tetrahydropyrido[3,4-d]pyrimidin-4-yl)-2,6-diazaspiro[3.3]heptan-2-yl)prop-2-en-1-one] the same measures were over 1000 nM and “C (“C”>50% POC)”.
For `C=CC(=O)N1CCN(c2nc(OC(C)CCN(C)C)nc3c2CCN(c2cc(O)cc4ccccc24)C3)CC1` (stereo not drawn) [Example 21, 1-(4-(2-((4-(dimethylamino)butan-2-yl)oxy)-7-(3-hydroxynaphthalen-1-yl)-5,6,7,8-tetrahydropyrido[3,4-d]pyrimidin-4-yl)piperazin-1-yl)prop-2-en-1-one] the same measures were 0.1 to 1000 nM and “C (“C”>50% POC)”.
